This series in a line: gradient 5% acetonitrile 3 min, to 50% in 2 min, to 85% in 15 min, held 3 min, 100 µL/min. The following applies: column: Zorbax Extend-C18 2.1 x 50 mm; eluents: water / acetonitrile, 0.1% formic acid. In a few lines: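 In both positive and negative ionization mode, a quadrupole time-of-flight mass spectrometer coupled to HPLC analyzed pure standards run in mixtures of ~100 molecules. The Zorbax Extend-C18 column (2.1 × 50 mm, 1.8 μm) was operated at 100 μL/min with water and acetonitrile, each containing 0.1% formic acid. The dead volume was 40 μL and the dwell volume 900 μL. Retention time came from adduct peaks that were computationally picked and individually inspected by hand.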
As for `Cc1nc(NCCNC(=O)c2cccs2)cc(N2CCCC2)n1`, the RP-LC retention time was determined as 560 s.
On to `COc1ccc(OC)c(NC(=O)CN2CC(C)Sc3ccccc32)c1` (centres undefined), for which the RP-LC retention time came out at 1080 s.
Take `Cc1cccc(-c2nc3ccccn3c2NC(=O)NCc2ccco2)c1`: the RP-LC retention time is 640 s.
The same measure for `Cc1ccc(NC(=O)N2CCN(c3cc(C)nc(N4CCOCC4)n3)CC2)c(Cl)c1`: 669 s; for `CCn1nccc1-c1cccc(-c2noc(-c3ccc(F)cc3)n2)c1`: 1240 s.
Consider `COc1ccc(-c2ccnc3nc(C(C)C)nn23)c(F)c1`, for which the RP-LC retention time is 840 s.
In turn, `O=C(Cn1nc2n(c1=O)CCCC2)NCCCc1ccccc1` showed an RP-LC retention time of 709 s.
For the molecule `O=C(NCCc1c[nH]c2ccccc12)C1CC(=O)N(Cc2ccccc2)C1` (centres undefined), the RP-LC retention time turned out to be 736 s.
Take `O=C(CN1CC=C(c2cnn(-c3ccccc3)c2)CC1)N1CCN(Cc2ccc3c(c2)OCO3)CC1`: the RP-LC retention time came out at 591 s.
`CC(C)NC(=O)N1CCNC(=O)C1` had an RP-LC retention time of 540 s.
With `CC(C)N1C(=O)C2(CCCC2)C1C(=O)N1CCc2ccccc21` (centres undefined), the RP-LC retention time was 780 s.
In turn, `Cc1sc(NC(=O)C(F)(F)F)nc1-c1ccc2c(c1)NC(=O)CO2` registered an RP-LC retention time of 763 s.
Regarding `COc1cccc(NC(=O)CSc2cc(N3CCN(c4ccccc4OC)CC3)ncn2)c1`, the RP-LC retention time turned out to be 938 s.
On to `COc1cccc(-c2noc(C3CCCN3C(=O)Nc3cccc(C#N)c3)n2)c1` (centres undefined), for which the RP-LC retention time worked out at 927 s.
In turn, `Cc1sc2c(c1C)C(c1ccc(Cl)cc1)=N[C@@H](CC(=O)Nc1ccc(O)cc1)c1nnc(C)n1-2` displayed an RP-LC retention time of 922 s.
With `Cc1ccc2c(Nc3cccc(C#N)c3)c(C(=O)N3CCCCC3)cnc2n1`, the RP-LC retention time stood at 598 s.
Molecule `COc1ccc(S(=O)(=O)N2CCCC(C(=O)Nc3ccccc3F)C2)cc1Cl` (centres undefined) came in with an RP-LC retention time of 985 s.
For `O=C(O)c1cnc(NCc2ccccn2)nc1-c1cccc(Cl)c1`, the RP-LC retention time stood at 613 s.
On to `CC(C)c1ccc(OCC(=O)Nc2nnc(C3CC(=O)N(c4ccc(Cl)cc4)C3)o2)cc1` (centres undefined), for which the RP-LC retention time was 943 s.
Regarding `O=C1NCCCCCCN(C(=O)c2ccsc2)[C@H]2CCCC[C@@H]12`, the RP-LC retention time was found to be 786 s.
`CCOc1ccc(C(=O)NCc2c(C)noc2C)cc1OCC`: the RP-LC retention time was 757 s.
Consider `CN(CC1CCOC1)C(=O)Nc1cccc(Br)c1` (centres undefined), for which the RP-LC retention time stood at 716 s.
Molecule `Cc1cc(N2CCN(C(=O)c3c(F)cccc3F)CC2)nc(N2CCOCC2)n1` gave an RP-LC retention time of 613 s.
Turning to `COc1cc(C(=O)Nc2nc(-c3ccc4c(c3)NC(=O)C(C)O4)cs2)cc(OC)c1OC` (centres undefined), the RP-LC retention time was 903 s.
On to `O=S(=O)(c1ccc(Br)s1)N1CCc2nc(-c3ccccc3)ncc2C1`, for which the RP-LC retention time is 1160 s.
As for `C=CCN1C(=O)COc2ccc(-c3nc(NC(=O)CCc4ccccc4)sc3C)cc21`, the RP-LC retention time came to 1050 s.
`Nc1nc(N2CCN(c3ccccn3)CC2)ncc1C(=O)NCc1ccccc1`: the RP-LC retention time turned out to be 592 s.
`O=C(NCC1CCN(C2CCCC2)CC1)C(=O)Nc1ccc(OC(F)(F)F)cc1`: the RP-LC retention time worked out at 611 s.
The result for `CC1CN(C(=O)c2ccc(C#N)cc2)c2ccccc2O1` (centres undefined) reads 914 s; that for `COC(=O)c1cc(S(=O)(=O)N2CCCC2C(=O)Nc2ccc(OC)cc2)cn1C` (centres undefined), 818 s.
The result for `CCC(C)NC(=O)c1cc2c(s1)CCN(C(=O)c1ccccc1)C2` (centres undefined) reads 769 s.
`Cc1cccc(NC(=O)Cn2ccc3sccc3c2=O)c1C` had an RP-LC retention time of 741 s.
On to `CCCn1ccc2sc(C)c(C(=O)NCCOC)c2c1=O`, for which the RP-LC retention time was 652 s.
Consider `O=C(NCc1cccc(C(F)(F)F)c1)C1(CCO)CCN(Cc2ccccc2)C1` (centres undefined), for which the RP-LC retention time came to 680 s.
The same measure for `COc1ccc(NS(=O)(=O)c2ccc3c(c2)C(=O)N(C)c2ncccc2O3)cc1F`: 891 s; for `CCOc1ccccc1NC(=O)N1C[C@@H](F)C[C@H]1C(=O)N1CCc2ccccc2C1`: 819 s; for `O=C(CN1C(=O)CC(c2ccccc2)S(=O)(=O)c2ccccc21)Nc1cccc(F)c1` (centres undefined): 863 s.
The result for `COc1cc(C(=O)N2CCC(c3nc4cccnc4n3C)C2)ccc1C` (centres undefined) reads 683 s; that for `COc1ccc(Cl)c2c(=O)c3c([nH]c12)CCN(CC(=O)Nc1cccc(Cl)c1C)C3`, 651 s; that for `Cc1[nH]c2ccccc2c1C(=O)C(=O)NC1CCCCC1`, 798 s.
The same measure for `COc1ccc(CN2C=C(C(=O)OCc3noc(-c4ccc(C)c(C)c4)n3)C(C)=NS2(=O)=O)cc1`: 1230 s; for `O=C(O)c1ccc(N2CCCC(CN3CCCC3)C2)c(NS(=O)(=O)c2cccc(F)c2)c1` (centres undefined): 648 s; for `O=C(NCCCc1ccccc1)C1CCCN(c2nccnc2Oc2ccccc2)C1` (centres undefined): 1020 s.
Molecule `O=c1c2cc(-c3cccs3)nn2cnn1Cc1nc(-c2ccccc2Br)no1` registered an RP-LC retention time of 1050 s.
In the case of `CCOc1ccc(-c2noc(N3CCC(C(=O)Nc4cc(Cl)ccc4OC)CC3)n2)cc1OC`, the RP-LC retention time is 1090 s.
On to `CC1CCCN(c2ccc(NC(=O)C(C)C)c(C(=O)O)c2)C1` (centres undefined), for which the RP-LC retention time was 627 s.
On to `CN1C(=O)c2ccccc2Oc2ccc(C(=O)NCc3ccc(Br)cc3)cc21`, for which the RP-LC retention time turned out to be 955 s.
For the molecule `O=C(c1ccc2c(c1)OCO2)N1CCCCC1c1nncn1CC1CC1` (centres undefined), the RP-LC retention time came out at 631 s.
`CCOc1ccc(NC(=O)Nc2nccn(-c3ccc(Br)cc3)c2=O)cc1` displayed an RP-LC retention time of 1040 s.
`O=C1C(Cl)=C(NCCc2ccccc2)C(=O)c2ccccc21` yielded an RP-LC retention time of 1190 s.
With `CCSc1nc2ncc(-c3ccnc(N4CCN(C)CC4)n3)c(C)n2n1`, the RP-LC retention time is 808 s.
The same measure for `Cc1ccc(F)cc1S(=O)(=O)N1CCC2(C1)C(=O)Nc1ccccc12` (centres undefined): 866 s.
`CC(C)c1ccc(NC(=O)C2CCCN(S(=O)(=O)c3c[nH]c(C(=O)N4CCCC4)c3)C2)cc1` (centres undefined): the RP-LC retention time is 939 s.
`O=C(Cn1cccc1-c1nnc(C2CCC2)o1)NCCc1ccc(Cl)cc1` registered an RP-LC retention time of 766 s.
`CC(=O)Nc1ccc(-n2cnc(C(=O)NCc3ccccc3)c2)nc1`: the RP-LC retention time is 663 s.
The result for `Cc1ccc(C(=O)N2CCCC(COc3ccc(C(=O)NC(C)C)cc3)C2)cc1C` (centres undefined) reads 931 s; that for `Cc1ccc(CNC(=O)Nc2ccc(-c3nc(-c4cc(C)ccc4C)co3)cc2)cc1`, 1240 s.
`Cc1cc(C)cc(NC(=O)CN2C(=O)CCc3cc(S(=O)(=O)N4CCCCC4C)ccc32)c1` (centres undefined) came in with an RP-LC retention time of 930 s.
Regarding `COc1ccc(NC(=O)CSc2ccc(-c3cccs3)nn2)c(OC)c1`, the RP-LC retention time amounted to 890 s.
In the case of `COCCN1C(=O)CCC2(CNC(=O)c3cnccn3)CCCC=C12` (centres undefined), the RP-LC retention time worked out at 657 s.
`Cc1ccc(CNC(=O)C2(C)Cn3cnc(C(=O)N4CCCCC4)c3C(=O)N2C2CC2)cc1` (centres undefined) gave an RP-LC retention time of 784 s.
Turning to `Cn1c(=O)c2c(Nc3ccc(C(F)(F)F)cc3)ccnc2n(C)c1=O`, the RP-LC retention time came out at 1010 s.
The same measure for `O=C(CSc1nccn1-c1ccc([N+](=O)[O-])cc1)NC1CCCCC1`: 730 s; for `CCOc1ccccc1OCc1nn2c(-c3ccccn3)nnc2s1`: 800 s; for `COc1ccc(-c2noc(C3CCCN3C(=O)NCc3ccco3)n2)cc1` (centres undefined): 855 s.
Turning to `Cc1ccc2c(c1)C(O)(CC(=O)c1ccc(NC(=O)C(C)(C)C)cc1)C(=O)N2` (centres undefined), the RP-LC retention time was 747 s.
The same measure for `O=C(Nc1cccc(F)c1)C(=O)c1cn(CC(=O)N2CCOCC2)c2ccccc12`: 902 s; for `O=C(NCCn1nc(-c2ccncc2)ccc1=O)c1ccc(C(F)(F)F)cc1`: 570 s; for `O=C(NC1CCCCCC1)c1nc(Nc2ccc(F)cc2)c2ccccc2n1`: 943 s.
Turning to `COc1cccc(CNC(=O)N2CCN(c3cnn4c(C)nnc4c3)CC2)c1`, the RP-LC retention time turned out to be 658 s.
In the case of `CC(C)NC[C@H](O)COc1cccc2ccccc12`, the RP-LC retention time came out at 720 s.
The molecule `COc1ccc(C(=O)N2CCC(n3c(-c4ccoc4)nc4cccnc43)C2)cc1OC` (centres undefined) returned an RP-LC retention time of 670 s.
The same measure for `O=C(Cn1nc(C(=O)N2CCCC2)c2ccccc21)NC1CCCC1`: 758 s; for `CCOc1ccccc1NC(=O)N1CCC(n2cnc3ccccc3c2=O)CC1`: 801 s.
Take `CCCN1C(=O)COc2ccc(-c3noc(-c4ccc(CS(=O)(=O)c5ccccc5)cc4)n3)cc21`: the RP-LC retention time was 1130 s.
In the case of `COc1cccc(S(=O)(=O)N2CCN(C3=CC4=NC(C)CN4C=N3)CC2)c1` (centres undefined), the RP-LC retention time was determined as 648 s.
On to `COc1cccc(-n2c(N3CCCC(C(=O)NCCN4CCCCC4)C3)nc3ccsc3c2=O)c1` (centres undefined), for which the RP-LC retention time is 632 s.
For the molecule `O=C(Nc1cnc(-c2ccc(Cl)cc2)nc1)C1CCCO1` (centres undefined), the RP-LC retention time turned out to be 910 s.
In turn, `COc1ccc(NC(=O)Cn2cnc3nc(N4CCC(C(=O)NC5CC5)CC4)sc3c2=O)cc1` yielded an RP-LC retention time of 681 s.
